Values joined by “and” are separate entries in the source; they are usually repeats but may differ in a detail not shown here. Equal entries are not always repeated. Inconclusive results and toxic doses are left out.

For the assay, the system named is BDF1 mice, B16 melanoma ip, median survival T/C. The assay can be described thus: NCI In Vivo Anticancer Drug Screen. Data for tumor model B16 Melanoma (intraperitoneal) in B6D2F1 (BDF1) mice. As to conditions: endpoint: median survival time, higher = longer survival. The essentials: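 The ratio T/C compares compound-treated mice with vehicle-treated controls, using survival or tumor size as the endpoint in a transplantable tumor model.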

Where [1] appears, read: dose: 6.25 mg/kg/injection, schedule: Q01DX009 (ip), vehicle: saline with Tween-80.
The mark [2] stands for this setting: dose: 12.5 mg/kg/injection, schedule: Q01DX009 (ip), vehicle: saline with Tween-80.
Setting [3] is: dose: 25.0 mg/kg/injection, schedule: Q01DX009 (ip), vehicle: saline with Tween-80.
[4] abbreviates: dose: 50.0 mg/kg/injection, schedule: Q01DX009 (ip), vehicle: Klucel (hydroxypropylcellulose) (HPC).
The mark [5] stands for this setting: dose: 100.0 mg/kg/injection, schedule: Q01DX009 (ip), vehicle: Klucel (hydroxypropylcellulose) (HPC).
[6] abbreviates: dose: 200.0 mg/kg/injection, schedule: Q01DX009 (ip), vehicle: Klucel (hydroxypropylcellulose) (HPC).
[7] abbreviates: dose: 50.0 mg/kg/injection, schedule: Q01DX009 (ip), vehicle: saline with Tween-80.
Where [8] appears, read: dose: 100.0 mg/kg/injection, schedule: Q01DX009 (ip), vehicle: saline with Tween-80.
Where [9] appears, read: dose: 200.0 mg/kg/injection, schedule: Q01DX009 (ip), vehicle: saline with Tween-80.
Where [10] appears, read: dose: 400.0 mg/kg/injection, schedule: Q01DX009 (ip), vehicle: saline with Tween-80.
Setting [11] is: dose: 25.0 mg/kg/injection, schedule: Q01DX009 (ip), vehicle: Klucel (hydroxypropylcellulose) (HPC).
[12] abbreviates: dose: 50.0 mg/kg/injection, schedule: Q01DX009 (ip), vehicle: saline.
The mark [13] stands for this setting: dose: 100.0 mg/kg/injection, schedule: Q01DX009 (ip), vehicle: saline.
[14] abbreviates: dose: 1.5 mg/kg/injection, schedule: Q01DX009 (ip), vehicle: saline.
The mark [15] stands for this setting: dose: 3.0 mg/kg/injection, schedule: Q01DX009 (ip), vehicle: saline.
Where [16] appears, read: dose: 200.0 mg/kg/injection, schedule: Q01DX009 (ip), vehicle: saline.
Where [17] appears, read: dose: 400.0 mg/kg/injection, schedule: Q01DX009 (ip), vehicle: Klucel (hydroxypropylcellulose) (HPC).

In the case of `COc1cc(Cl)ccc1C`, the T/C (dose: 37.5 mg/kg/injection, schedule: Q01DX001 (ip), vehicle: Klucel (hydroxypropylcellulose) (HPC)) was 103 % of control; the T/C (dose: 75.0 mg/kg/injection, schedule: Q01DX001 (ip), vehicle: Klucel (hydroxypropylcellulose) (HPC)) is 182 % of control; the T/C (dose: 150.0 mg/kg/injection, schedule: Q01DX001 (ip), vehicle: Klucel (hydroxypropylcellulose) (HPC)) was 116 % of control; the T/C (dose: 300.0 mg/kg/injection, schedule: Q01DX001 (ip), vehicle: Klucel (hydroxypropylcellulose) (HPC)) was 100 % of control.

For the compound `C1CN2CCC1CC2`, the T/C (dose: 1.56 mg/kg/injection, schedule: Q01DX009 (ip), vehicle: saline with Tween-80) was 102 % of control; the T/C (dose: 3.12 mg/kg/injection, schedule: Q01DX009 (ip), vehicle: saline with Tween-80) was 102 % of control; the T/C under setting [1] is 92 % of control and 99 % of control; the T/C under setting [2] is 86 % of control and 91 % of control; the T/C under setting [3] was 86 % of control and 91 % of control.

`O=S1(=O)C=Cc2ccccc21`: the T/C is 90 % of control under setting [4], 88 % of control under setting [5] and 88 % of control under setting [6].

`Nc1ccc(S(N)(=O)=O)cc1`: the T/C reads like this: under setting [3], 97 % of control and 99 % of control; under setting [7], 94 % of control and 102 % of control; under setting [8], 91 % of control and 100 % of control; under setting [9], 96 % of control and 102 % of control; under setting [10], 99 % of control and 105 % of control.

For `OC(Cc1cnc2ccccc2n1)(C(F)(F)F)C(F)(F)F`, the T/C (dose: 100.0 mg/kg/injection, schedule: Q04DX003 (ip), vehicle: saline with Tween-80) is 105 % of control; the T/C (dose: 200.0 mg/kg/injection, schedule: Q04DX003 (ip), vehicle: saline with Tween-80) was 105 % of control; the T/C (dose: 400.0 mg/kg/injection, schedule: Q04DX003 (ip), vehicle: saline with Tween-80) is 102 % of control.

In the case of `CC1(C)N=C(N)N=C(N)N1c1ccc(OCCOc2ccc(S(=O)(=O)F)cc2)c(Cl)c1`, the T/C runs as follows: (dose: 12.5 mg/kg/injection, schedule: Q04DX003 (ip), vehicle: saline) 107 % of control; (dose: 25.0 mg/kg/injection, schedule: Q04DX003 (ip), vehicle: saline) 121 % of control.

For the compound `CCc1ccccc1NC(=O)Nc1ccc(OC)cc1`, the T/C is 95 % of control under setting [11] and 87 % of control under setting [4].

With `CCC(=O)Nc1ccc(C)c(Cl)c1`, the T/C was 105 % of control under setting [8], 105 % of control under setting [9] and 115 % of control under setting [10].

`Cc1ccc2c([N+](=O)[O-])cccc2n1`: the T/C runs as follows: under setting [11], 107 % of control; under setting [4], 93 % of control; under setting [5], 98 % of control.

Take `CCN(CC)CCOc1cc(C)ccc1C(C)C`: the T/C reads like this: under setting [4], 111 % of control; (dose: 50.0 mg/kg/injection, schedule: Q04DX003 (ip), vehicle: Klucel (hydroxypropylcellulose) (HPC)) 95 % of control; (dose: 100.0 mg/kg/injection, schedule: Q04DX003 (ip), vehicle: Klucel (hydroxypropylcellulose) (HPC)) 97 % of control; (dose: 200.0 mg/kg/injection, schedule: Q04DX003 (ip), vehicle: Klucel (hydroxypropylcellulose) (HPC)) 86 % of control.

For the compound `CC(C)C(C(=O)c1ccccc1)C(c1ccccc1)c1ccccc1` (stereo unspecified), the T/C runs as follows: (dose: 100.0 mg/kg/injection, schedule: Q04DX003 (ip), vehicle: other) 92 % of control; (dose: 200.0 mg/kg/injection, schedule: Q04DX003 (ip), vehicle: other) 94 % of control.

With `CCOCCCN`, the T/C runs as follows: under setting [12], 122 % of control; under setting [13], 122 % of control.

Consider `O=C(c1ccccc1Cl)N(Cc1ccccc1)c1ccccc1`, for which the T/C runs as follows: under setting [11], 93 % of control; under setting [4], 93 % of control; under setting [5], 90 % of control and 100 % of control.

In the case of `CCC(C)C(C(=O)OCCN(C)C)c1ccccc1` (stereo unspecified), the T/C was 100 % of control under setting [3], 112 % of control under setting [7] and 99 % of control under setting [8].

Take `O=C(O)c1ccc2c3c(ccc(C(=O)O)c13)CC2`: the T/C runs as follows: under setting [11], 92 % of control; under setting [4], 91 % of control.

Take `O=C(CCN1CC1)OCCOC(=O)CCN1CC1`: the T/C runs as follows: under setting [14], 118 % of control; under setting [15], 110 % of control.

Turning to `CSCCC(NC(C)=O)C(=O)NNC(C)C` (stereo unspecified), the T/C (dose: 25.0 mg/kg/injection, schedule: Q01DX009 (ip), vehicle: saline) is 105 % of control; the T/C under setting [12] is 88 % of control; the T/C under setting [13] is 123 % of control; the T/C under setting [16] was 88 % of control; the T/C (dose: 400.0 mg/kg/injection, schedule: Q01DX009 (ip), vehicle: saline) was 97 % of control.

For the compound `Cn1c2c(c3ccccc3c1=O)C(=O)c1ccccc1-2`, the T/C under setting [3] is 97 % of control and the T/C under setting [7] is 89 % of control.

Take `CC(=O)/C=C/c1ccc(O)cc1`: the T/C runs as follows: under setting [5], 113 % of control; under setting [6], 116 % of control; under setting [17], 93 % of control.

With `c1ccc2c(c1)CNNC2`, the T/C is 123 % of control under setting [12], 111 % of control under setting [13] and 100 % of control under setting [16].

Take `FC(F)(F)c1ccc2c(c1)N(CCCN1CCN(CCN3CCOCC3)CC1)c1ccccc1S2`: the T/C by setting is: (dose: 0.37 mg/kg/injection, schedule: Q01DX009 (ip), vehicle: saline) 97 % of control; (dose: 0.75 mg/kg/injection, schedule: Q01DX009 (ip), vehicle: saline) 87 % of control; under setting [14], 115 % of control; under setting [15], 112 % of control.

Consider `CC12C=CC(=O)C=C1CCC1C2C(O)CC2(C)C1CCC2(O)C(=O)COC(=O)CCCc1ccc(N(CCCl)CCCl)cc1` (stereo unspecified), for which the T/C (dose: 15.0 mg/kg/injection, schedule: Q01DX011 (ip), vehicle: saline) is 119 % of control.

For the compound `CNC1=C(N2CC2C)C(=O)C(NC)=C(N2CC2C)C1=O` (stereo unspecified), the T/C (dose: 1.25 mg/kg/injection, schedule: Q01DX009 (ip), vehicle: saline) was 109 % of control.

For `CC(=O)C(C)(NCc1ccccc1)c1ccccc1` (stereo unspecified), the T/C was 86 % of control under setting [4] and 89 % of control under setting [5].

With `CC[C@@H](C)[C@@H]1NC(=O)C(NC(=O)C(CC(C)C)N(C)C(=O)C2CCCN2C(=O)C(C)O)C(C)OC(=O)C(Cc2ccc(OC)cc2)N(C)C(=O)C2CCCN2C(=O)C(CC(C)C)NC(=O)C(C)C(=O)C(C(C)C)OC(=O)C[C@H]1O` (stereo partly specified), the T/C was 161 % of control (dose: 80.0 micrograms/kg/injection, schedule: Q01DX009 (ip), vehicle: clinical formulation); 160 % of control (dose: 160.0 micrograms/kg/injection, schedule: Q01DX009 (ip), vehicle: clinical formulation); 160 % of control (dose: 160.0 micrograms/kg/injection, schedule: Q01DX009 (ip), vehicle: distilled water + alcohol); 153 % of control (dose: 320.0 micrograms/kg/injection, schedule: Q01DX009 (ip), vehicle: clinical formulation); 172 % of control (dose: 320.0 micrograms/kg/injection, schedule: Q01DX009 (ip), vehicle: distilled water + alcohol).

Turning to `COc1ccc(Cl)cc1NC(=O)c1ccccc1C(=O)O`, the T/C by setting is: under setting [5], 100 % of control; under setting [6], 94 % of control.

Consider `CC1C=CCC(C)(C)C1` (stereo unspecified), for which the T/C (dose: 50.0 mg/kg/injection, schedule: Q01DX009 (ip), vehicle: other) is 96 % of control; the T/C under setting [5] was 111 % of control; the T/C (dose: 100.0 mg/kg/injection, schedule: Q01DX009 (ip), vehicle: other) is 92 % of control; the T/C (dose: 100.0 mg/kg/injection, schedule: Q04DX003 (ip), vehicle: saline) is 88 % of control; the T/C under setting [6] is 104 % of control; the T/C (dose: 200.0 mg/kg/injection, schedule: Q04DX003 (ip), vehicle: saline) is 97 % of control. The T/C under setting [17] was 105 % of control and the T/C (dose: 400.0 mg/kg/injection, schedule: Q04DX003 (ip), vehicle: saline) is 90 % of control.

For `CC(C)c1ccc(C(c2c(O)c3ccccc3oc2=O)c2c(O)c3ccccc3oc2=O)cc1`, the T/C (dose: 12.5 mg/kg/injection, schedule: Q01DX009 (ip), vehicle: Klucel (hydroxypropylcellulose) (HPC)) was 99 % of control; the T/C under setting [11] was 97 % of control; the T/C under setting [4] is 107 % of control.

Regarding `CCn1cnc2c(=S)nc[nH]c21`, the T/C was 97 % of control under setting [1]; 86 % of control under setting [2]; 95 % of control under setting [3]; 89 % of control and 104 % of control under setting [7].

(Values after PubChem BioAssay AID192 (DTP/NCI, 2004).)
